# According to ChEMBL document CHEMBL3804816 (Medchemcomm, 2016):
# Calls of active or inactive are those of the source. The rule behind the calls is not given here.
# Experiments:
# Type in all cases: cell-based
# IMR-32 [1] = assay: Agonist activity at GABA type-A receptor in human IMR32 cells at 1 mM after 2 hrs by Epic DMR assay
# [2] = Antagonist activity against GABA type-A receptor in human IMR32 cells assessed as GABA-induced response preincubated for 10 mins followed by GABA addition measured at 140 mins by Epic DMR assay
# [3] = Agonist activity at GABA type-A receptor in human IMR32 cells after 2 hrs by Epic DMR assay; conditions: IMR-32, 2 h
# IMR-32 [4] = assay: Agonist activity at GABA type-A receptor in human IMR32 cells at 100 uM after 2 hrs by Epic DMR assay
structure (smiles),measurement,setting,value
Oc1noc2c1CCNC2,Activity,IMR-32 [1],Active
COc1ccc(-c2ccc(=N)n(CCCC(=O)O)n2)cc1 [GABAZINE],IC50,"[2]; IMR-32, read-out: IC50",7.38 µM
same,IC50,"[2]; IMR-32, read-out: pIC50 (converted)",4.57 µM
NCc1cc(O)no1 [MUSCIMOL],EC50,[3]; read-out: EC50,2.04 µM
same,EC50,[3]; read-out: pEC50 (converted),1.7 µM
same,Activity,IMR-32 [1],Active
NCC(CC(=O)O)c1ccc(Cl)cc1 (racemic),Activity,IMR-32 [4],inactive
